# Assay results: paper PMC6949291, “An evolutionarily conserved iron-sulfur cluster underlies redox sensory function of the Chloroplast Sensor Kinase” (Communications Biology, 2020)
# B1: Synechocystis sp. PCC 6803 Histidine kinase 2 (Hik2), reconstituted holoprotein (enzyme, UniProt P73276 1-434, looked up)
# chain: MAGSISSMYSPSAGLISLCQSQVRLLQQGLRVDWCGVYLNQEETEQGLVPLVVSHGSTLVESESYGLISLPQGEVSPPMDDFSLPAVPVGVGQLSRRSRLEPPPFDADKRLVLPLVYGEEMVGLLVIHRSQGQWHGEEMMQLEAIAKSLAVACLLDQQQDWYRQAWEEQNQQYQWERQHWADLLHQLRNPLTALKTFSKLLLKRWHGDNKSQQVVEGIVRQGEHLQELLQSFEASQSQGPEAVPLLSSSPVTTIQVLPPADRVETMPLANFSLGEVLPPILLAHQAIAAERNITLTAQIALIDTVVMANRLALREVVNNLLDNGIKYTPNGGLVEVSLALEKVSSSGMDWATLAIADTGYGIPPEDQQKIFERNYRGVQGRGSINGTGLGLAIVADLVAQMGGKITVTSPNGLSRDPDQPGSTFTLWLRSGEQV
# notes: Histidine kinase 2 (Hik2, slr1147), the cyanobacterial CSK homologue, Synechocystis sp; Each monomer carries one [3Fe-4S] cluster (holoprotein after reconstitution with iron and sulfide); also called Syn-CSK; holoSyn-CSK
# Columns and labels:
# [1] = target: T1, Syn-CSK (Hik2) (Synechocystis sp. PCC 6803, UniProt P73276); experiment: autophosphorylation, autoradiography; format: biochemical; details: 0.5 mM, MgCl2, pH 8, 22 °C, reductant of the [3Fe-4S] cluster, inhibitor of autokinase activity
# T1 construct: octamer
# [2] = target: the molecule itself; experiment: SEC; Superdex 200 10/300GL Increase; air-oxidized protein eluted with 20 mM Tris-HCl pH 8 and 10 mM NaCl (legend; methods say 20 mM NaCl), or the same buffer with 2 mM sodium dithionite; mass from a calibration curve
Molecule,"autophosphorylation with [γ-^32P]ATP, autoradiography [1]",stoichiometry N [2]
Cc1c(C)c(O)c(C)c(C)c1O [duroquinol],"Treatment with reducing agents: dithionite, duroquinol, or decylPQH2 inhibit Syn-CSK",–
B1,–,8
